Here are results for 15 compounds from ChEMBL document CHEMBL1134200, “Pimarane cyclooxygenase 2 (COX-2) inhibitor and its structure-activity relationship” (Bioorg Med Chem Lett, 2001).

The target of the test is T1, Prostaglandin G/H synthase 2 (Ovis aries, UniProt P79208).
T1 sequence (P79208 whole entry): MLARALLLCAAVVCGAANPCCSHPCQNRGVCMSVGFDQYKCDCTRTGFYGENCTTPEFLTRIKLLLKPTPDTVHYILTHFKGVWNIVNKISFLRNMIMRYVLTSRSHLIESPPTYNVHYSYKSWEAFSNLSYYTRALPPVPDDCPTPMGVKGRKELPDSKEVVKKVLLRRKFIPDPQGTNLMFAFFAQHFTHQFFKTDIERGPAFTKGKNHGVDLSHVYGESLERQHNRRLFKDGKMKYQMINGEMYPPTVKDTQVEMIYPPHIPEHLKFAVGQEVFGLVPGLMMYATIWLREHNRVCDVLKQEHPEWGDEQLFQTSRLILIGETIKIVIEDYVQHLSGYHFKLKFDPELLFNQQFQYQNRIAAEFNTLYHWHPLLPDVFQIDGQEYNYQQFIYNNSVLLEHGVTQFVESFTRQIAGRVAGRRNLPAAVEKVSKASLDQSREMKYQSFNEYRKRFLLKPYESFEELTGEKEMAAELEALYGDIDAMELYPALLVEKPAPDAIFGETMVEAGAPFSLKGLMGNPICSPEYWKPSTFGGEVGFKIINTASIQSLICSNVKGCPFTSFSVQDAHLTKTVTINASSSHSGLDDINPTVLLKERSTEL
The experiment in a line: Inhibitory activity against Prostaglandin G/H synthase 2 from sheep placental cotyledons.

Usually IC50 stands for the concentration that inhibits the measured activity by half. Higher therefore signals a need for much substance. Consider `C=C[C@@]1(C)CC=C2C(CCC3[C@](C)(CC(=O)O)CCC[C@@]23C)C1` (stereo not given in full), for which the midpoint of inhibition, the IC50, lay at 82.3 µM. In turn, `C[C@]1(CCF)CC=C2C(CCC3[C@](C)(C(=O)O)CCC[C@@]23C)C1` (stereo not given in full) displayed an IC50 of more than 1000 µM. The value for `C[C@]1(CC(F)F)CC=C2C(CCC3[C@](C)(C(=O)O)CCC[C@@]23C)C1` (stereo not given in full) was 796 µM; that for `COCC[C@@]1(C)CC=C2C(CCC3[C@](C)(C(=O)O)CCC[C@@]23C)C1` (stereo not given in full) was more than 1000 µM.

For `C=C[C@@]1(C)CC=C2C(CCC3[C@](C)(CCC/C=C/C(=O)O)CCC[C@@]23C)C1` (stereo not given in full), the concentration for half-maximal inhibition (IC50) was determined as 13.2 µM. The same measure for `C=C[C@@]1(C)CC=C2C(CCC3[C@](C)(CCC(=O)O)CCC[C@@]23C)C1` (stereo not given in full): 105 µM; for `C=C[C@@]1(C)CC=C2C(CCC3[C@](C)(C(N)=O)CCC[C@@]23C)C1` (stereo not given in full): more than 1000 µM; for `C=C[C@@]1(C)CC=C2C(CCC3[C@](C)(C(=O)NO)CCC[C@@]23C)C1` (stereo not given in full): 819 µM. Compound `C=C[C@@]1(C)CC=C2C(CCC3[C@](C)(C(=O)OC)CCC[C@@]23C)C1` (stereo not given in full) showed an IC50 of more than 1000 µM.

Regarding `C[C@@]1(C2CO2)CC2CCC3[C@](C)(C(=O)O)CCC[C@@]3(C)[C@@]23O[C@H]3C1` (stereo not given in full), the IC50 was more than 1000 µM. Compound `C[C@]1(CCF)CC=C2C(CCC3[C@](C)(C(=O)F)CCC[C@@]23C)C1` (stereo not given in full) registered a half-inhibitory concentration (IC50) of 194 µM. The value for `CC(=O)OCC[C@@]1(C)CC=C2C(CCC3[C@](C)(C(=O)O)CCC[C@@]23C)C1` (stereo not given in full) was more than 1000 µM; that for `C[C@]1(CCO)CC=C2C(CCC3[C@](C)(C(=O)O)CCC[C@@]23C)C1` (stereo not given in full) was more than 1000 µM; that for `CC[C@@]1(C)CC=C2C(CCC3[C@](C)(C(=O)O)CCC[C@@]23C)C1` (stereo not given in full) was 425 µM. The same measure for `C=C[C@@]1(C)CC=C2C(CCC3[C@](C)(CO)CCC[C@@]23C)C1` (stereo not given in full) [ACANTHOL]: more than 1000 µM.
